Columns and labels:
[1] = target: 5-hydroxytryptamine receptor 2B (Homo sapiens, UniProt P41595); assay type: functional, cell-based
[2] = target: T1, Histamine H3 receptor (Homo sapiens, UniProt Q9Y5N1)
[3] = target: Gamma-aminobutyric acid receptor subunit alpha-1/alpha-2/beta-2/gamma-2 (Homo sapiens, UniProt P14867+P18507+P47869+P47870); assay type: protein-complex assay
[4] = target: T2, Thromboxane A2 receptor (Homo sapiens, UniProt P21731)
T2 sequence (P21731 whole entry): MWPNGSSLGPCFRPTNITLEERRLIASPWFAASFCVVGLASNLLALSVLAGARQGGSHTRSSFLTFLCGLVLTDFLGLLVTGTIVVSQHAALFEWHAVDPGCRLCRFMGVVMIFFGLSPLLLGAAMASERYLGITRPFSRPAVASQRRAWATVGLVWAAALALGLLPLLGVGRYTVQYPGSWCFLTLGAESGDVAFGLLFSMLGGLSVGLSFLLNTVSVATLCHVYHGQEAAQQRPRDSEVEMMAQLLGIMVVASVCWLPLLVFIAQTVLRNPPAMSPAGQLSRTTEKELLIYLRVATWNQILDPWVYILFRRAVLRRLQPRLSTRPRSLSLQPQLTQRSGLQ

[5] = target: 3',5'-cyclic-AMP phosphodiesterase 4A (Homo sapiens, UniProt P27815); assay type: functional
[6] = target: Acetylcholinesterase (Homo sapiens, UniProt P22303); assay type: functional
[7] = target: Histamine H2 receptor (Homo sapiens, UniProt P25021); assay type: functional, cell-based
[8] = target: T3, 5-hydroxytryptamine receptor 1A (Homo sapiens, UniProt P08908); assay type: functional, cell-based
T3 sequence (P08908 whole entry): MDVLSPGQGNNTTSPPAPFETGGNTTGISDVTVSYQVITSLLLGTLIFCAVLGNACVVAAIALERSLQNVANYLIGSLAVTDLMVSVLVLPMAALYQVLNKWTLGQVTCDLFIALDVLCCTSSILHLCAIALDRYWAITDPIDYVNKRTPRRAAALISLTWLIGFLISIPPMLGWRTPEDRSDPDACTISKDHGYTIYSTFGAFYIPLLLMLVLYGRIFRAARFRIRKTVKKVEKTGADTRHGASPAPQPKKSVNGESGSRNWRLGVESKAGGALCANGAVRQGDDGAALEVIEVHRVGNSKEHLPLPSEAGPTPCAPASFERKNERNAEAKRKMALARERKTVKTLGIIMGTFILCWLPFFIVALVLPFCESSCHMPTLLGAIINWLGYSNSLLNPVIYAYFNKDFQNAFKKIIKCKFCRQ

[9] = target: T2, Thromboxane A2 receptor; assay type: functional, cell-based
[10] = target: T1, Histamine H3 receptor; remark: listed apart in the source
[11] = target: T4, Muscarinic acetylcholine receptor M2 (Homo sapiens, UniProt P08172)
T4 sequence (P08172 whole entry): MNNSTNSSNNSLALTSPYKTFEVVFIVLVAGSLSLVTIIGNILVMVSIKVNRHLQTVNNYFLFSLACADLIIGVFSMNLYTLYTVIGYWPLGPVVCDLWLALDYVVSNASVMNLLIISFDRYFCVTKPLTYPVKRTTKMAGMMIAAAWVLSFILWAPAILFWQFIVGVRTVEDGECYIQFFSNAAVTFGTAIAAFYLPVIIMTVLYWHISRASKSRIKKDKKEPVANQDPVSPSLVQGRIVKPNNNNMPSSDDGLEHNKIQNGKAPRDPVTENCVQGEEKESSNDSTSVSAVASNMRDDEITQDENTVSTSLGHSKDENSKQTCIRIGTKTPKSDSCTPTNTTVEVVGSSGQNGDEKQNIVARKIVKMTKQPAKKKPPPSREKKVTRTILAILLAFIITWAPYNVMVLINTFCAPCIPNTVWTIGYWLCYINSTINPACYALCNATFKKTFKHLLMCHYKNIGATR

[12] = target: Sodium-dependent serotonin transporter (Homo sapiens, UniProt P31645)
[13] = target: 5-hydroxytryptamine receptor 2A (Homo sapiens, UniProt P28223); assay type: functional, cell-based
[14] = target: T5, Alpha-2B adrenergic receptor (Homo sapiens, UniProt P18089)
T5 sequence (P18089 whole entry): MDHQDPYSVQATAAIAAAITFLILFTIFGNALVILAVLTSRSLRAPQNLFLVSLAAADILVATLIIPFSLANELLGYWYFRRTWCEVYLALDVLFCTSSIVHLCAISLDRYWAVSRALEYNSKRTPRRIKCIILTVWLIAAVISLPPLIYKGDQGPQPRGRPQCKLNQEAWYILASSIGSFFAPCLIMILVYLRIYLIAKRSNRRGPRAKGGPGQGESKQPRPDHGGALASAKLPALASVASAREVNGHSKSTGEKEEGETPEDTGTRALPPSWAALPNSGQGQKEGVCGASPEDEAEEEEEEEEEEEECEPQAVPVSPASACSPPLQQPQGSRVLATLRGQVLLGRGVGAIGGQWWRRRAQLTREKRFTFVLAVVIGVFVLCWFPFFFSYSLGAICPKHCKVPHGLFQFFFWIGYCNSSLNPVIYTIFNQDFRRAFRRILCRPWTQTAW

[15] = target: T6, Muscarinic acetylcholine receptor M1 (Homo sapiens, UniProt P11229); assay type: functional
T6 sequence (P11229 whole entry): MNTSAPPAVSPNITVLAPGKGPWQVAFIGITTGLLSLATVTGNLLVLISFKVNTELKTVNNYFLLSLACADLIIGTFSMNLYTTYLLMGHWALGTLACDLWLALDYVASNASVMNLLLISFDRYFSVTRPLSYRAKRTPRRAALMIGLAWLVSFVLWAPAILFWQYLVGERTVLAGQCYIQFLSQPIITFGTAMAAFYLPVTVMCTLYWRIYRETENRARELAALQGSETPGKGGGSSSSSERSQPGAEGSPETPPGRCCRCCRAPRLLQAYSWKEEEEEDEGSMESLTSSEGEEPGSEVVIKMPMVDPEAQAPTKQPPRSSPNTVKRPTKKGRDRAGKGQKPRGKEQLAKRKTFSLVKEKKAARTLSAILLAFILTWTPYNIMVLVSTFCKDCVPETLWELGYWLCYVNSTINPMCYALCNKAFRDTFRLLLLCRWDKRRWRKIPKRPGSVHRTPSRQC

Measured: AC50
Note: assay procedure not described here.

Chain of Gamma-aminobutyric acid receptor subunit alpha-1/alpha-2/beta-2/gamma-2 (P14867 whole entry): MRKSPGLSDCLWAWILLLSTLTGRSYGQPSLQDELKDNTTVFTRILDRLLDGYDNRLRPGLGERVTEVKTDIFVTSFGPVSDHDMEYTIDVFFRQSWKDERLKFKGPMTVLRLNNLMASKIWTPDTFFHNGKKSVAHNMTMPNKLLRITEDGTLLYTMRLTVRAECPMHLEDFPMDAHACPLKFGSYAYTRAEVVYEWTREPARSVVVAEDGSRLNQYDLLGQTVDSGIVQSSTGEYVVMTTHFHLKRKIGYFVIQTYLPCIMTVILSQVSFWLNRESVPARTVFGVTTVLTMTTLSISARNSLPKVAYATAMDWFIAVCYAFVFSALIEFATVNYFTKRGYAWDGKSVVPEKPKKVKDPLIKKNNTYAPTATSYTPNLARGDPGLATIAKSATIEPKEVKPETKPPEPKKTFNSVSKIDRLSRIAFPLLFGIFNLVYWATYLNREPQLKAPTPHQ
Chain of Gamma-aminobutyric acid receptor subunit alpha-1/alpha-2/beta-2/gamma-2 (P47870 whole entry): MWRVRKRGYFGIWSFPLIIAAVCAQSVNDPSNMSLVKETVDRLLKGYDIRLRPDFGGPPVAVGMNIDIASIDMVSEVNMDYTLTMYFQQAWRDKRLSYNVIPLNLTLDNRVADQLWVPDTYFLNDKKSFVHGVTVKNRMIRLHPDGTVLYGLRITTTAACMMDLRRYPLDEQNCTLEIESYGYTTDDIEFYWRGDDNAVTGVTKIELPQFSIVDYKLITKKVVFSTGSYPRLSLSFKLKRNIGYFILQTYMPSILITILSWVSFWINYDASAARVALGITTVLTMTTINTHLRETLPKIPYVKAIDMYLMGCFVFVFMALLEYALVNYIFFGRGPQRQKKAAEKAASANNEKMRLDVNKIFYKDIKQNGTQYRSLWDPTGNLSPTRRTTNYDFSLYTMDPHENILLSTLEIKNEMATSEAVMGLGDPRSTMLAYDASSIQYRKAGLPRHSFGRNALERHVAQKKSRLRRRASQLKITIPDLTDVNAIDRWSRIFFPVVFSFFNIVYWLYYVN
Chain of Gamma-aminobutyric acid receptor subunit alpha-1/alpha-2/beta-2/gamma-2 (P18507 whole entry): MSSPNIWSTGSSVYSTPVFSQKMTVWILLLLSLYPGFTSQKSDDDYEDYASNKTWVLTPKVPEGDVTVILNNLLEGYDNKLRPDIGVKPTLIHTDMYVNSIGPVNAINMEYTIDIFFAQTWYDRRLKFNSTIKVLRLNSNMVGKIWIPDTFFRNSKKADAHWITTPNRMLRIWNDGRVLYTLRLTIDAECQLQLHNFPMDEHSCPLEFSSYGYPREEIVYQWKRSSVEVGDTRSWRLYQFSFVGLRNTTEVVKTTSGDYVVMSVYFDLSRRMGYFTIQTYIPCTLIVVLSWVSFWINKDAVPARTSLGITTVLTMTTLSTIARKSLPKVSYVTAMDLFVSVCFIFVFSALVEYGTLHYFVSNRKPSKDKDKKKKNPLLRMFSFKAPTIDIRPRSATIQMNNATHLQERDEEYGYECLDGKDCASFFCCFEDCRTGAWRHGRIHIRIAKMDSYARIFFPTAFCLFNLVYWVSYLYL
Chain of Gamma-aminobutyric acid receptor subunit alpha-1/alpha-2/beta-2/gamma-2 (P47869 whole entry): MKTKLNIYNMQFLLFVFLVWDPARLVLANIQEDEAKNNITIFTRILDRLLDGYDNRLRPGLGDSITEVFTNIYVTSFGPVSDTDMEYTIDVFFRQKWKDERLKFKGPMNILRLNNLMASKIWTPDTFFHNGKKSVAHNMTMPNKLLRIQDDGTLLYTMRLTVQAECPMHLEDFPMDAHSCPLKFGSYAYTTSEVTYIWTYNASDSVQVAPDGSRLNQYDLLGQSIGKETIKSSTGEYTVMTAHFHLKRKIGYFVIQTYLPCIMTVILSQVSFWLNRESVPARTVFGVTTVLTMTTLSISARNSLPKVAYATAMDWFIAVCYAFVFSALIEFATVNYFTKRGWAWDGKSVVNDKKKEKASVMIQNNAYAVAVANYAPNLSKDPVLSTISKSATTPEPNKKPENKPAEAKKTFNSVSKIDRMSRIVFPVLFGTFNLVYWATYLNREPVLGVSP
Chain of Acetylcholinesterase (P22303 whole entry): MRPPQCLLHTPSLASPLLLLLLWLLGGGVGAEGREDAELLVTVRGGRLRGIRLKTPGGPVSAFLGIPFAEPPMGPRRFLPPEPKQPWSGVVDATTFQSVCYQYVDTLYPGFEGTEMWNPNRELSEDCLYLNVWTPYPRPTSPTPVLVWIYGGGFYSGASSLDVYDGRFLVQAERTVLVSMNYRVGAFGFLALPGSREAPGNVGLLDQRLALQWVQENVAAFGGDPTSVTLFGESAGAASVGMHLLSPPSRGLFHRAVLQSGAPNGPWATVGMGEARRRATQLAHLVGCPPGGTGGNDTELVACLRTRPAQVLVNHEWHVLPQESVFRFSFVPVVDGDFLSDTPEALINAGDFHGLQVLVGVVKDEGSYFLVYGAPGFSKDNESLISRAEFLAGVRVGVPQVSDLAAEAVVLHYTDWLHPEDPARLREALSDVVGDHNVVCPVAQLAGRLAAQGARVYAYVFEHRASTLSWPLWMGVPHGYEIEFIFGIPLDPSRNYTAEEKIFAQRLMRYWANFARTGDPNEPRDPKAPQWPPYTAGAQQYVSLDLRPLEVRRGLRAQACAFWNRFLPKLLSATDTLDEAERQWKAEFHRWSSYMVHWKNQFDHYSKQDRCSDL
Chain of Histamine H2 receptor (P25021 whole entry): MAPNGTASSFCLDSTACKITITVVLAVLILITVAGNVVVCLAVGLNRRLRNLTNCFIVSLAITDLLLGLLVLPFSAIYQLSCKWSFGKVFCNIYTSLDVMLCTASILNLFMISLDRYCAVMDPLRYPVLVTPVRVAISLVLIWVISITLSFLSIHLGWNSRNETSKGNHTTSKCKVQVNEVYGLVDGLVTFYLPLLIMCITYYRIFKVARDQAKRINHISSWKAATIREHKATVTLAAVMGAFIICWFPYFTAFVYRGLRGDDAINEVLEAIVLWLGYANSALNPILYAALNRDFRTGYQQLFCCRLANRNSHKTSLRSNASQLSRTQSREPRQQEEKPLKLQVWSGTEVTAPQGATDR
Chain of Sodium-dependent serotonin transporter (P31645 whole entry): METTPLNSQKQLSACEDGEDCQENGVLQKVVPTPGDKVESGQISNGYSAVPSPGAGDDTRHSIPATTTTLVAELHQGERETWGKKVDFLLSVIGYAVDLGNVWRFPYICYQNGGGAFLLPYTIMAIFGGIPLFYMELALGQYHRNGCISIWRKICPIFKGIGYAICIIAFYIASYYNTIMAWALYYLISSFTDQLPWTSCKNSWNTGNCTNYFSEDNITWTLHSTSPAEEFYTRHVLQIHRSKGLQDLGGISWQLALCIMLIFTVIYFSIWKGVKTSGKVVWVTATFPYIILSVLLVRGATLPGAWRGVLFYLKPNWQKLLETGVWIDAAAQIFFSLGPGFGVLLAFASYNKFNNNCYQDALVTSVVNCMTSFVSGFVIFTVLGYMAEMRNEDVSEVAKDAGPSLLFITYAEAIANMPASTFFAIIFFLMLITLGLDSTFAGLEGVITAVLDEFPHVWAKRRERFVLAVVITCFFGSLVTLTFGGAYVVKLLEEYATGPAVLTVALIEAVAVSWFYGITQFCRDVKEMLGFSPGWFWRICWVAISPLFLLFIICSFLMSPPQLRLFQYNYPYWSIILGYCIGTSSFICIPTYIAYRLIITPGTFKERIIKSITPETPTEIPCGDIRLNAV
T1 sequence (Q9Y5N1 whole entry): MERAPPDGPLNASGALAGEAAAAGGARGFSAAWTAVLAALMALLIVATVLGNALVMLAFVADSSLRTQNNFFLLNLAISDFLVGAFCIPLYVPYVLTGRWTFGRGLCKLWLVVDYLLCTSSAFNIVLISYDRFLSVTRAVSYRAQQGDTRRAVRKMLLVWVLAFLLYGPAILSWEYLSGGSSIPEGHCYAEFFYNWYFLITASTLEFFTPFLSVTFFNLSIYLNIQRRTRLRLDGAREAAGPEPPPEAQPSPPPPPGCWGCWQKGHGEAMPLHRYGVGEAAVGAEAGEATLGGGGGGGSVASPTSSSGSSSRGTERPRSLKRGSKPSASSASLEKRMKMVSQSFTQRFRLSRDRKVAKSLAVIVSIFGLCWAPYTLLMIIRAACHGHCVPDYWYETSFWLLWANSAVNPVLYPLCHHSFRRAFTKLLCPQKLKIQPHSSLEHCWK
Chain of 3',5'-cyclic-AMP phosphodiesterase 4A (P27815 whole entry): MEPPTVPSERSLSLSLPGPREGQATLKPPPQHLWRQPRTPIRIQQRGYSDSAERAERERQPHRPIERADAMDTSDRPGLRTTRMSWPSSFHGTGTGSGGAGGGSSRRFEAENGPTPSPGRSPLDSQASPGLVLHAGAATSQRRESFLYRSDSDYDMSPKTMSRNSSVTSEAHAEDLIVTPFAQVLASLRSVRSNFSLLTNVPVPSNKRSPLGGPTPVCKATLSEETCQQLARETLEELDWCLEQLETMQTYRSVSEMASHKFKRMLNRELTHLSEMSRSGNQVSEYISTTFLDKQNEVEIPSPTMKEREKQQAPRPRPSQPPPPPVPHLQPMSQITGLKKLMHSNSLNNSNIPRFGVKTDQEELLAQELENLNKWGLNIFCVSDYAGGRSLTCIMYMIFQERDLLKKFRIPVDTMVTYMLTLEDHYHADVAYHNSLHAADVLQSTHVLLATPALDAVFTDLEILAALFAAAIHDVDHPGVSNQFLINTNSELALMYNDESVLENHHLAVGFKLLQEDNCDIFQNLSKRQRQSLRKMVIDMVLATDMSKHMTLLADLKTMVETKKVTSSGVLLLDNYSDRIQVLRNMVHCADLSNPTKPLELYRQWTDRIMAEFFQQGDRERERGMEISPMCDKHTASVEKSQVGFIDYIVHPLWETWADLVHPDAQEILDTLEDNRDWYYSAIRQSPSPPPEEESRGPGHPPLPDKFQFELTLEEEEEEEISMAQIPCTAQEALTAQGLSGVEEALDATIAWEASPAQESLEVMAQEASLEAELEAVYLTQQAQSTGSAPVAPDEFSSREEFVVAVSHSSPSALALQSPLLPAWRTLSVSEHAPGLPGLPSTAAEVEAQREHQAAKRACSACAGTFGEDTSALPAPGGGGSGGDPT

Nc1nc(N)c2nc(-c3ccccc3)c(N)nc2n1
20.8 µM: [5]
> 30 µM: [1] | [2] | [3] | [4] | [6] | [7] | [9] | [10] | [11]
> 10 µM: [8]

Cc1cc(O)cc(C)c1Cl [CHLOROXYLENOL]
> 30 µM: [1] | [2] | [3] | [5] | [6] | [9] | [11]

CN(C)CCCN1c2ccccc2CCc2ccc(Cl)cc21 [CLOMIPRAMINE]
3.8 µM: [10]
> 30 µM: [1] | [2] | [3] | [6] | [7]
0.451 µM: [11]

C#C[C@]1(O)CC[C@H]2[C@@H]3CCC4=CC(=O)CC[C@@H]4[C@H]3CC[C@@]21CC [LEVONORGESTREL]
> 30 µM: [1] | [2] | [3] | [5] | [6] | [9] | [11]

C[N+]1(C)[C@@H]2C[C@@H](OC(=O)[C@H](CO)c3ccccc3)C[C@H]1[C@@H]1O[C@@H]12 [METHSCOPOLAMINE]
> 30 µM: [1] | [2] | [3] | [5] | [6] | [9]

CC1(C)O[C@@H]2C[C@H]3[C@@H]4C[C@H](F)C5=CC(=O)CC[C@]5(C)[C@H]4[C@@H](O)C[C@]3(C)[C@]2(C(=O)CO)O1 [FLURANDRENOLIDE]
> 30 µM: [1] | [2] | [3] | [5] | [6] | [9] | [11]

O=C(COc1ccc(Cl)cc1)N1CCN(Cc2ccc3c(c2)OCO3)CC1 [FIPEXIDE]
29.2 µM: [12]
> 30 µM: [1] | [2] | [3] | [5] | [6] | [9] | [11]

C[N+](C)(C)CCCCCCCCCC[N+](C)(C)C [DECAMETHONIUM]
9.15 µM: [6]
> 30 µM: [1] | [2] | [3] | [5] | [9] | [12] | [11]

CC(=O)Oc1c(C)cc(OCC(O)CNC(C)C)c(C)c1C (configuration not stated) [METIPRANOLOL]
> 30 µM: [1] | [2] | [3] | [5] | [6] | [9] | [12] | [11]

O=C1CC[C@@]2(O)[C@H]3Cc4ccc(O)c5c4[C@@]2(CCN3CC2CC2)[C@H]1O5 [NALTREXONE]
> 30 µM: [1] | [2] | [3] | [5] | [6] | [9] | [11]

CC(C)C(=O)Nc1ccc([N+](=O)[O-])c(C(F)(F)F)c1 [FLUTAMIDE]
> 30 µM: [1] | [2] | [4] | [5] | [6] | [7] | [9] | [10] | [11]
> 10 µM: [3] | [8]

Cc1c(-c2ccccc2)oc2c(C(=O)OCCN3CCCCC3)cccc2c1=O [FLAVOXATE]
24.6 µM: [2]
3.39 µM: [11]
> 30 µM: [1] | [3] | [9]
17.6 µM: [6]
6.12 µM: [5]

OCCN1CCN(CCCN2c3ccccc3C=Cc3ccccc32)CC1 [OPIPRAMOL]
11.7 µM: [12]
19 µM: [2]
28 µM: [13]
10 µM: [14]
> 30 µM: [1] | [5] | [6] | [7] | [8] | [9] | [10] | [15]
9.58 µM: [11]

Sc1ncnc2nc[nH]c12 [MERCAPTOPURINE ANHYDROUS]
> 30 µM: [1] | [2] | [3] | [5] | [6] | [9] | [11]

Oc1ncnc2[nH]ncc12 [ALLOPURINOL]
> 30 µM: [1] | [2] | [3] | [4] | [5] | [6] | [9] | [10] | [11]
> 10 µM: [7] | [8]

NC(=O)c1cnccn1 [PYRAZINAMIDE]
> 30 µM: [1] | [2] | [3] | [4] | [5] | [6] | [7] | [9] | [10] | [11]
> 10 µM: [8]

CN(C)C(=O)Oc1ccc[n+](C)c1 [PYRIDOSTIGMINE]
> 30 µM: [1] | [2] | [3] | [5] | [9] | [12] | [11]

CC(O)CO (configuration not stated) [PROPYLENE GLYCOL]
> 30 µM: [1] | [2] | [3] | [5] | [6] | [9] | [11]

OC[C@@H](O)[C@@H](O)[C@H](O)[C@H](O)CO [MANNITOL]
> 30 µM: [1] | [2] | [3] | [5] | [6] | [9] | [11]

O=C(NC[C@H]1CN(c2ccc(N3CCOCC3=O)cc2)C(=O)O1)c1ccc(Cl)s1 [RIVAROXABAN]
> 30 µM: [13] | [1] | [2] | [5] | [14] | [6] | [9] | [12] | [11] | [15]

— ChEMBL document CHEMBL5291721, “A preclinical secondary pharmacology resource illuminates target-adverse drug reaction associations of marketed drugs” (Nat Commun, 2023)
